Drawing on patent publication US10898481B2 (priority 2018, dated 2021), this text covers IC50 for 27 compounds.

SMILES strings stand for the structures.

The target of this assay is hA2a/CHO (Homo sapiens (Human), UniProt P29274). Briefly: cAMP inhibition assay in hA2a/CHO cells, 10 μM adenosine.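 Also: compounds added to cells 30 min ahead of adenosine, then a further 30 min at 37 °C with adenosine before cAMP detection.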 The class given is cell-based. The settings on record: read-out: cAMP & FLIPR IC50 (nM) hA2a.
hA2a/CHO, sequence (P29274 whole entry): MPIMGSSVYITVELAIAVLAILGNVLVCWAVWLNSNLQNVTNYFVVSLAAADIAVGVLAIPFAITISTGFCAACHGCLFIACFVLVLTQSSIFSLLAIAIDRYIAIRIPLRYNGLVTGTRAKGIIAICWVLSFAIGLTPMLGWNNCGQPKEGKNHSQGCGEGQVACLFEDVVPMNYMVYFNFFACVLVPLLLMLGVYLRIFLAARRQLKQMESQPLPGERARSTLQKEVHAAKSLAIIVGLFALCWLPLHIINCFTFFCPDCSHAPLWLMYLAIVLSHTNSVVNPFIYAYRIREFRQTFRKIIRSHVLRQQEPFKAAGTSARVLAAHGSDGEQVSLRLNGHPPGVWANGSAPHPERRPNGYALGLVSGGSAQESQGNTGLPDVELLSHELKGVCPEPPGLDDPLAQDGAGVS

Procedure: hA2a/CHO, hA2b/CHO, hA3/CHO and mA2a/CHO (Genscript) were plated at 5×10^3 cells/well into 384-well polystyrene plates at the day of experiment. Compounds were pre-incubated with cells for 30 min at 37° C., 5% CO2. Then 10 μM adenosine was added to the cells and incubated for 30 min at 37° C., 5% CO2. Detection reagent (CISBIO) was added and the plates were incubated for 60 min at room temperature. The signal was captured by Envision.

Take `Cc1cnc2ccc(-c3nc(C(=O)NCc4ncccc4OCCO)c(N)nc3-c3ncco3)cn12` [Example 300, 3-amino-N-((3-(2-hydroxyethoxy)pyridin-2-yl)methyl)-6-(3-methylimidazo [1,2-a]pyridin-6-yl)-5-(oxazol-2-yl) pyrazine-2-carboxamide]: the IC50 (usually the midpoint of a concentration-inhibition curve) is 0.8 nM. In the case of `Cc1cnc2ccc(-c3nc(C(=O)NC[C@H]4CCCN4C)c(N)nc3-c3ccccc3)cn12` [Cmpd. 259, 3-amino-6-[3-methylimidazo[1,2-a]pyridin-6-yl]-N-[[(2R)-1-methylpyrrolidin-2-yl]methyl]-5-phenylpyrazine-2-carboxamide], the IC50 came out at 3.7 nM. As for `Cc1cnc2ccc(-c3nc(C(=O)NCc4cccc(N5CC6(CN(C)C6)C5)n4)c(N)nc3-c3ncco3)cn12` [Example 284, 3-amino-N-[(6-[6-methyl-2,6-diazaspiro[3.3]heptan-2-yl]pyridin-2-yl)methyl]-6-[3-methylimidazo[1,2-a]pyridin-6-yl]-5-(1,3-oxazol-2-yl)pyrazine-2-carboxamide], the IC50 was 0.7 nM.

As to `Cc1cnc2ccc(-c3nc(C(=O)NCc4cccc(N5C[C@H]6C[C@@H]5CN6C)n4)c(N)nc3-c3ncco3)cn12` [Example 282, 3-amino-N-((6-((1R,4R)-5-methyl-2,5-diazabicyclo[2.2.1]heptan-2-yl)pyridin-2-yl)methyl)-6-(3-methylimidazo[1,2-a]pyridin-6-yl)-5-(oxazol-2-yl) pyrazine-2-carboxamide], the 50% inhibitory concentration (IC50) came to 4.5 nM. The result for `Cc1cnc2ccc(-c3nc(C(=O)N[C@@H](C)Cn4nccn4)c(N)nc3-c3ncco3)cn12` [Example 297, 3-amino-6-[3-methylimidazo[1,2-a]pyridin-6-yl]-5-(1,3-oxazol-2-yl)-N-[(2S)-1-(2H-1,2,3-triazol-2-yl)propan-2-yl]pyrazine-2-carboxamide] reads 0.2 nM.

In the case of `Cc1cnc2ccc(-c3nc(C(=O)NCC4CCCOC4)c(N)nc3-c3ncco3)cn12` (single isomer, unassigned; isomer 2) [Example 168, 3-amino-6-(3-methylimidazo[1,2-a]pyridin-6-yl)-5-(oxazol-2-yl)-N-((tetrahydro-2H-pyran-3-yl)methyl) pyrazine-2-carboxamide (isomer 2)], the IC50 was determined as 1.1 nM.

Consider `COC1CCCC(NC(=O)c2nc(-c3ccc4ncc(C)n4c3)c(-c3ncco3)nc2N)C1` (single isomer, unassigned; isomer4) [Example 295, 3-amino-N-(3-methoxycyclohexyl)-6-(3-methylimidazo[1,2-a]pyridin-6-yl)-5-(oxazol-2-yl) pyrazine-2-carboxamide (isomer4)], for which the IC50 is 13 nM.

For `Cc1cnc2ccc(-c3nc(C(=O)NCc4cccc(N5CCN(C)C[C@@H]5C)n4)c(N)nc3-c3ncco3)cn12` [Example 287-2, (S)-3-amino-N-((6-(2,4-dimethylpiperazin-1-yl)pyridin-2-yl)methyl)-6-(3-methylimidazo[1,2-a]pyridin-6-yl)-5-(oxazol-2-yl)pyrazine-2-carboxamide], the IC50 was found to be 4.4 nM.

With `Cc1cnc2ccc(-c3nc(CNC(=O)[C@H]4CCCN4C)c(N)nc3-n3nccn3)cn12` [Example 290, (2R)—N-[(3-amino-6-[3-methylimidazo[1,2-a]pyridin-6-yl]-5-(2H-1,2,3-triazol-2-yl)pyrazin-2-yl)methyl]-1-methylpyrrolidine-2-carboxamide], the IC50 is 5.8 nM. Regarding `Cc1cnc2ccc(-c3nc(C(=O)NC[C@H]4CCCN4C)c(N)nc3-c3cccc(F)c3)cn12` [Cmpd. 231, (R)-3-amino-5-(3-fluorophenyl)-6-(3-methylimidazo[1,2-a]pyridin-6-yl)-N-((1-methylpyrrolidin-2-yl)methyl)pyrazine-2-carboxamide], the IC50 was 6.2 nM.

In the case of `Cc1cnc2ccc(-c3nc(C(=O)NCc4cccc(N5[C@@H]6C[C@H]5CN(C)C6)n4)c(N)nc3-c3ncco3)cn12` [Example 174, 3-amino-N-((6-(3-methyl-3,6-diazabicyclo[3.1.1]heptan-6-yl)pyridin-2-yl)methyl)-6-(3-methylimidazo[1,2-a]pyridin-6-yl)-5-(oxazol-2-yl)pyrazine-2-carboxamide], the IC50 was 6.9 nM.

Turning to `COC1CCOC1CNC(=O)c1nc(-c2ccc3ncc(C)n3c2)c(-c2ncco2)nc1N` (single isomer, unassigned) [Example 280, 3-amino-N-((3-methoxytetrahydrofuran-2-yl)methyl)-6-(3-methylimidazo[1,2-a]pyridin-6-yl)-5-(oxazol-2-yl)pyrazine-2-carboxamide], the IC50 worked out at 0.6 nM. The result for `Cc1cnc2ccc(-c3nc(C(=O)NC[C@H]4CCCN4C)c(N)nc3-c3ccc(F)c(F)c3)cn12` [Cmpd. 272, 3-amino-5-(3,4-difluorophenyl)-6-[3-methylimidazo[1,2-a]pyridin-6-yl]-N-[[(2R)-1-methylpyrrolidin-2-yl]methyl]pyrazine-2-carboxamide] reads 37 nM; that for `COC1CCOC1CNC(=O)c1nc(-c2ccc3ncc(C)n3c2)c(-c2ncco2)nc1N` (single isomer, unassigned) [Example 279, 3-amino-N-((3-methoxytetrahydrofuran-2-yl)methyl)-6-(3-methylimidazo[1,2-a]pyridin-6-yl)-5-(oxazol-2-yl)pyrazine-2-carboxamide], 1.4 nM. On to `Cc1cnc2ccc(-c3nc(C(=O)NCc4cccc(N5CCN(C)[C@@H](C)C5)n4)c(N)nc3-c3ncco3)cn12` [Example 286, (S)-3-amino-N-((6-(3,4-dimethylpiperazin-1-yl)pyridin-2-yl)methyl)-6-(3-methylimidazo[1,2-a]pyridin-6-yl)-5-(oxazol-2-yl)pyrazine-2-carboxamide], for which the IC50 worked out at 3.2 nM. Regarding `Cc1cnc2ccc(-c3nc(C(=O)NCc4cccc(N5CC6(CCN(C)C6)C5)n4)c(N)nc3-c3ncco3)cn12` [Cmpd. 175, 3-amino-N-((6-(6-methyl-2,6-diazaspiro[3.4]octan-2-yl)pyridin-2-yl)methyl)-6-(3-methylimidazo[1,2-a]pyridin-6-yl)-5-(oxazol-2-yl)pyrazine-2-carboxamide], the IC50 is 0.9 nM. As to `Cc1cnc2ccc(-c3nc(C(=O)NCC4OCC4(C)C)c(N)nc3-c3ncco3)cn12` (single isomer, unassigned; isomer 2) [Example 289, 3-amino-N-((3,3-dimethyloxetan-2-yl)methyl)-6-(3-methylimidazo[1,2-a]pyridin-6-yl)-5-(oxazol-2-yl)pyrazine-2-carboxamide (isomer 2)], the IC50 stood at 1.9 nM.

As to `Cc1cnc2ccc(-c3nc(C(=O)NCC4CCCOC4)c(N)nc3-c3ncco3)cn12` (single isomer, unassigned; isomer 1) [Example 167, 3-amino-6-(3-methylimidazo[1,2-a]pyridin-6-yl)-5-(oxazol-2-yl)-N-((tetrahydro-2H-pyran-3-yl)methyl)pyrazine-2-carboxamide (isomer 1)], the IC50 is 1.2 nM. `COC1CCCC(NC(=O)c2nc(-c3ccc4ncc(C)n4c3)c(-c3ncco3)nc2N)C1` (single isomer, unassigned; isomer 3) [Example 294, 3-amino-N-(3-methoxycyclohexyl)-6-(3-methylimidazo[1,2-a]pyridin-6-yl)-5-(oxazol-2-yl)pyrazine-2-carboxamide (isomer 3)]: the IC50 worked out at 0.2 nM.

As to `Cc1cnc2ccc(-c3nc(C(=O)NCc4cccc(N5[C@@H]6CC[C@H]5CN(C)C6)n4)c(N)nc3-c3ncco3)cn12` [Cmpd. 172, 3-amino-N-[(6-[3-methyl-3,8-diazabicyclo[3.2.1]octan-8-yl]pyridin-2-yl)methyl]-6-[3-methylimidazo[1,2-a]pyridin-6-yl]-5-(1,3-oxazol-2-yl)pyrazine-2-carboxamide], the IC50 worked out at 5.1 nM.

For the compound `COC1CCCC(NC(=O)c2nc(-c3ccc4ncc(C)n4c3)c(-c3ncco3)nc2N)C1` (single isomer, unassigned; isomer 1) [Example 292, 3-amino-N-(3-methoxycyclohexyl)-6-(3-methylimidazo[1,2-a]pyridin-6-yl)-5-(oxazol-2-yl)pyrazine-2-carboxamide (isomer 1)], the IC50 came out at 0.4 nM.

Consider `Cc1cnc2ccc(-c3nc(C(=O)NCC4OCC4(C)C)c(N)nc3-c3ncco3)cn12` (single isomer, unassigned; isomer 1) [Example 288, 3-amino-N-((3,3-dimethyloxetan-2-yl)methyl)-6-(3-methylimidazo[1,2-a]pyridin-6-yl)-5-(oxazol-2-yl)pyrazine-2-carboxamide (isomer 1)], for which the IC50 is 0.6 nM.

As to `Cc1cnc2ccc(-c3nc(C(=O)NC(C)Cn4cncn4)c(N)nc3-c3ncco3)cn12` (racemic) [Example 306, rac-N-(1-(1H-1,2,4-triazol-1-yl)propan-2-yl)-3-amino-6-(3-methylimidazo [1,2-a]pyridin-6-yl)-5-(oxazol-2-yl) pyrazine-2-carboxamide], the half-inhibitory concentration (IC50) is 14 nM. Turning to `Cc1cnc2ccc(-c3nc(CNC(=O)[C@H]4CCCN4C)c(N)nc3-c3cc(F)cc(F)c3)cn12` [Example 291, (2R)—N-[[3-amino-5-(3,5-difluorophenyl)-6-[3-methylimidazo[1,2-a]pyridin-6-yl]pyrazin-2-yl]methyl]-1-methylpyrrolidine-2-carboxamide], the IC50 is 1.1 nM. The result for `Cc1cnc2ccc(-c3nc(C(=O)NCc4cccc(N5C[C@@H]6C[C@H]5CN6C)n4)c(N)nc3-c3ncco3)cn12` [Example 283, 3-amino-N-((6-((lS,4S)-5-methyl-2,5-diazabicyclo[2.2.1]heptan-2-yl)pyridin-2-yl)methyl)-6-(3-methylimidazo[1,2-a]pyridin-6-yl)-5-(oxazol-2-yl)pyrazine-2-carboxamide] reads 3.4 nM. The figure for `COCCCNC(=O)c1nc(-c2ccc3ncc(C)n3c2)c(-n2nccn2)nc1N` [Example 299, 3-amino-N-(3-methoxypropyl)-6-(3-methylimidazo[1,2-a]pyridin-6-yl)-5-(2H-1,2,3-triazol-2-yl)pyrazine-2-carboxamide] is 4.9 nM. As to `Cc1cnc2ccc(-c3nc(C(=O)NCC(C)(C)C(=O)N(C)C)c(N)nc3-c3ncco3)cn12` [Example 281, 3-[(3-amino-6-[3-methylimidazo[1,2-a]pyridin-6-yl]-5-(1,3-oxazol-2-yl)pyrazin-2-yl)formamido]-N,N,2,2-tetramethylpropanamide], the IC50 came to 0.3 nM.
